In PubChem BioAssay AID256 (DTP/NCI, 2004) one finds T/C data, which are given here for 16 molecules.

Each structure is given as a SMILES string. Values joined by “and” are separate entries in the source; they are usually repeats but may differ in a detail not shown here. Equal values may be shown once. Inconclusive results and toxic doses are left out.

This test concerns CD2F1 mice, L1210 leukemia ip, survival T/C. Description: NCI In Vivo Anticancer Drug Screen. Data for tumor model L1210 Leukemia (intraperitoneal) in CD2F1 (CDF1) mice. Conditions: higher = longer survival. The method, boiled down:
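Read-out first: treated-group measurement over vehicle-control measurement, expressed as a ratio. Animals bore a transplanted tumor line and were dosed with compound or vehicle.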

Setting [1] is: endpoint: mean survival time, dose: 100.0 mg/kg/injection, schedule: Q04DX003 (ip), vehicle: saline with Tween-80.
Setting [2] is: endpoint: mean survival time, dose: 200.0 mg/kg/injection, schedule: Q04DX003 (ip), vehicle: saline with Tween-80.
[3] abbreviates: endpoint: mean survival time, dose: 400.0 mg/kg/injection, schedule: Q04DX003 (ip), vehicle: saline with Tween-80.
Where [4] appears, read: endpoint: mean survival time, dose: 100.0 mg/kg/injection, schedule: Q04DX002 (ip), vehicle: saline with Tween-80.
Where [5] appears, read: endpoint: mean survival time, dose: 200.0 mg/kg/injection, schedule: Q04DX002 (ip), vehicle: saline with Tween-80.

In the case of `CN=C1C=C(NC)C(F)(F)C1(F)F`, the T/C (endpoint: mean survival time, dose: 6.25 mg/kg/injection, schedule: Q04DX003 (ip), vehicle: saline) is 98 % of control; the T/C (endpoint: mean survival time, dose: 12.5 mg/kg/injection, schedule: Q04DX003 (ip), vehicle: saline) is 101 % of control; the T/C (endpoint: mean survival time, dose: 25.0 mg/kg/injection, schedule: Q04DX003 (ip), vehicle: saline) is 101 % of control.

On to `CC(C(=O)O)N(C)N=O` (configuration not stated), for which the T/C reads like this: (endpoint: mean survival time, dose: 50.0 mg/kg/injection, schedule: Q01DX009 (ip), vehicle: Klucel (hydroxypropylcellulose) (HPC)) 104 % of control; (endpoint: mean survival time, dose: 100.0 mg/kg/injection, schedule: Q01DX009 (ip), vehicle: Klucel (hydroxypropylcellulose) (HPC)) 93 % of control; (endpoint: mean survival time, dose: 200.0 mg/kg/injection, schedule: Q01DX009 (ip), vehicle: Klucel (hydroxypropylcellulose) (HPC)) 86 % of control.

For `Nc1ccc(OC(=O)Oc2ccc(N)cc2)cc1`, the T/C is 87 % of control (endpoint: mean survival time, dose: 18.75 mg/kg/injection, schedule: Q06HX068 (ip), vehicle: other); 100 % of control (endpoint: mean survival time, dose: 18.75 mg/kg/injection, schedule: Q#A X034 (ip), vehicle: other); 106 % of control (endpoint: mean survival time, dose: 37.5 mg/kg/injection, schedule: Q01DX017 (ip), vehicle: other); 103 % of control (endpoint: mean survival time, dose: 37.5 mg/kg/injection, schedule: Q#A X034 (ip), vehicle: other); 100 % of control (endpoint: mean survival time, dose: 75.0 mg/kg/injection, schedule: Q01DX001 (ip), vehicle: other); 112 % of control (endpoint: mean survival time, dose: 75.0 mg/kg/injection, schedule: Q01DX005 (ip), vehicle: other). In addition, the T/C by setting is: (endpoint: mean survival time, dose: 150.0 mg/kg/injection, schedule: Q01DX001 (ip), vehicle: other) 102 % of control; (endpoint: mean survival time, dose: 150.0 mg/kg/injection, schedule: Q01DX017 (ip), vehicle: other) 154 % of control; (endpoint: mean survival time, dose: 150.0 mg/kg/injection, schedule: Q#A X034 (ip), vehicle: other) 155 % of control; (endpoint: mean survival time, dose: 300.0 mg/kg/injection, schedule: Q01DX001 (ip), vehicle: other) 103 % of control.

In the case of `O=C(O)C1CCC(C(=O)O)CC1` (configuration not stated), the T/C is 95 % of control (endpoint: mean survival time, dose: 100.0 mg/kg/injection, schedule: Q01DX009 (ip), vehicle: saline with Tween-80); 91 % of control (endpoint: mean survival time, dose: 200.0 mg/kg/injection, schedule: Q01DX009 (ip), vehicle: saline with Tween-80); 87 % of control (endpoint: mean survival time, dose: 400.0 mg/kg/injection, schedule: Q01DX009 (ip), vehicle: saline with Tween-80).

`CSc1n[nH]c(N=[N+]=[N-])c1C(N)=O`: the T/C under setting [1] was 96 % of control, the T/C under setting [2] was 93 % of control and the T/C under setting [3] was 101 % of control.

For `CCCCCC(C)O[Si](C)OCC` (configuration not stated), the T/C is 96 % of control (endpoint: mean survival time, dose: 100.0 mg/kg/injection, schedule: Q04DX003 (ip), vehicle: saline); 106 % of control (endpoint: mean survival time, dose: 200.0 mg/kg/injection, schedule: Q04DX003 (ip), vehicle: saline); 108 % of control (endpoint: mean survival time, dose: 400.0 mg/kg/injection, schedule: Q04DX003 (ip), vehicle: saline).

As for `CC1/C=C/C=C/CC/C=C/C=C/C=C/C=C/C(OC2OC(C)C(O)C(N)C2O)CC2OC(CC(O)C(O)CCC(O)CC(O)CC(O)CC(=O)OC(C)C(C)C1O)CC(O)C2C(=O)O` (configuration not stated), the T/C is 95 % of control (endpoint: mean survival time, dose: 9.5 mg/kg/injection, schedule: Q01DX009 (ip), vehicle: saline sonified); 98 % of control (endpoint: mean survival time, dose: 9.5 mg/kg/injection, schedule: Q04DX003 (ip), vehicle: saline sonified); 93 % of control (endpoint: mean survival time, dose: 19.0 mg/kg/injection, schedule: Q01DX009 (ip), vehicle: saline sonified); 92 % of control (endpoint: mean survival time, dose: 19.0 mg/kg/injection, schedule: Q04DX003 (ip), vehicle: saline sonified); 87 % of control (endpoint: mean survival time, dose: 38.0 mg/kg/injection, schedule: Q01DX009 (ip), vehicle: saline sonified); 100 % of control (endpoint: mean survival time, dose: 38.0 mg/kg/injection, schedule: Q04DX003 (ip), vehicle: saline sonified). Further, the T/C was 100 % of control (endpoint: median survival time, dose: 6.25 mg/kg/injection, schedule: Q01DX009 (ip), vehicle: saline with Tween-80); 100 % of control (endpoint: median survival time, dose: 12.5 mg/kg/injection, schedule: Q01DX009 (ip), vehicle: saline with Tween-80); 102 % of control (endpoint: median survival time, dose: 25.0 mg/kg/injection, schedule: Q01DX009 (ip), vehicle: saline with Tween-80); 101 % of control (endpoint: median survival time, dose: 50.0 mg/kg/injection, schedule: Q01DX009 (ip), vehicle: saline with Tween-80); 100 % of control (endpoint: median survival time, dose: 100.0 mg/kg/injection, schedule: Q01DX009 (ip), vehicle: saline with Tween-80).

With `CCOC(=O)CC(O)CC` (configuration not stated), the T/C is 95 % of control (endpoint: mean survival time, dose: 100.0 mg/kg/injection, schedule: Q04DX002 (ip), vehicle: saline); 95 % of control (endpoint: mean survival time, dose: 200.0 mg/kg/injection, schedule: Q04DX002 (ip), vehicle: saline); 95 % of control (endpoint: mean survival time, dose: 400.0 mg/kg/injection, schedule: Q04DX002 (ip), vehicle: saline).

Take `CCOC(=O)N1C2CCC(C2)N1C(=O)OCC`: the T/C is, setting by setting: under setting [1], 100 % of control; under setting [2], 100 % of control; under setting [3], 87 % of control.

With `CSc1c(N)nc(N)[nH]c1=O`, the T/C reads like this: (endpoint: mean survival time, dose: 100.0 mg/kg/injection, schedule: Q01DX001 (ip), vehicle: alkali diluted with water) 96 % of control; (endpoint: mean survival time, dose: 200.0 mg/kg/injection, schedule: Q01DX001 (ip), vehicle: alkali diluted with water) 94 % of control; (endpoint: mean survival time, dose: 400.0 mg/kg/injection, schedule: Q01DX001 (ip), vehicle: alkali diluted with water) 96 % of control.

As for `Cc1c2ccccc2c(C)c2c1cc(C(=O)O)c1ccccc12`, the T/C is 106 % of control (endpoint: mean survival time, dose: 12.5 mg/kg/injection, schedule: Q04DX002 (ip), vehicle: Klucel (hydroxypropylcellulose) (HPC)); 101 % of control (endpoint: mean survival time, dose: 25.0 mg/kg/injection, schedule: Q04DX002 (ip), vehicle: Klucel (hydroxypropylcellulose) (HPC)); 106 % of control (endpoint: mean survival time, dose: 50.0 mg/kg/injection, schedule: Q04DX002 (ip), vehicle: Klucel (hydroxypropylcellulose) (HPC)); 107 % of control (endpoint: mean survival time, dose: 100.0 mg/kg/injection, schedule: Q04DX002 (ip), vehicle: Klucel (hydroxypropylcellulose) (HPC)); 112 % of control (endpoint: mean survival time, dose: 150.0 mg/kg/injection, schedule: Q04DX002 (ip), vehicle: Klucel (hydroxypropylcellulose) (HPC)); 111 % of control (endpoint: median survival time, dose: 25.0 mg/kg/injection, schedule: Q01DX009 (ip), vehicle: sodium bicarbonate). The T/C by setting is: (endpoint: median survival time, dose: 50.0 mg/kg/injection, schedule: Q01DX009 (ip), vehicle: sodium bicarbonate) 115 % of control and 117 % of control; (endpoint: median survival time, dose: 200.0 mg/kg/injection, schedule: Q01DX009 (ip), vehicle: sodium bicarbonate) 122 % of control; (endpoint: median survival time, dose: 400.0 mg/kg/injection, schedule: Q01DX009 (ip), vehicle: sodium bicarbonate) 107 % of control.

On to `O=C(OCC#CCOC(=O)c1c(Cl)ccc(Cl)c1Cl)c1c(Cl)ccc(Cl)c1Cl`, for which the T/C by setting is: under setting [4], 89 % of control; under setting [5], 89 % of control.

For `CCC1(O)C(=O)OCc2c1cc1n(c2=O)Cc2cc3ccc(C#N)cc3nc2-1` (configuration not stated), the T/C (endpoint: median survival time, dose: 2.5 mg/kg/injection, schedule: Q04DX002 (ip), vehicle: saline with Tween-80) was 152 % of control; the T/C (endpoint: median survival time, dose: 5.0 mg/kg/injection, schedule: Q04DX002 (ip), vehicle: saline with Tween-80) was 196 % of control; the T/C (endpoint: median survival time, dose: 10.0 mg/kg/injection, schedule: Q04DX002 (ip), vehicle: saline with Tween-80) was 250 % of control and 365 % of control; the T/C (endpoint: median survival time, dose: 20.0 mg/kg/injection, schedule: Q04DX002 (ip), vehicle: saline with Tween-80) was 101 % of control and 103 % of control.

In the case of `COC(=O)c1cccc(I)c1`, the T/C reads like this: under setting [4], 100 % of control; under setting [5], 100 % of control; (endpoint: mean survival time, dose: 400.0 mg/kg/injection, schedule: Q04DX002 (ip), vehicle: saline with Tween-80) 96 % of control.

On to `Cc1ccccc1C1(c2ccccc2C)OC(=O)c2ccccc21`, for which the T/C reads like this: (endpoint: mean survival time, dose: 100.0 mg/kg/injection, schedule: Q04DX003 (ip), vehicle: acetone) 104 % of control; (endpoint: mean survival time, dose: 200.0 mg/kg/injection, schedule: Q04DX003 (ip), vehicle: acetone) 88 % of control; (endpoint: mean survival time, dose: 400.0 mg/kg/injection, schedule: Q04DX003 (ip), vehicle: acetone) 96 % of control.

With `O=C(O)CC1NCCC12OCCO2` (configuration not stated), the T/C was 97 % of control (endpoint: mean survival time, dose: 100.0 mg/kg/injection, schedule: Q01DX001 (ip), vehicle: saline); 98 % of control (endpoint: mean survival time, dose: 100.0 mg/kg/injection, schedule: Q01DX009 (ip), vehicle: saline); 102 % of control (endpoint: mean survival time, dose: 200.0 mg/kg/injection, schedule: Q01DX001 (ip), vehicle: saline); 98 % of control (endpoint: mean survival time, dose: 200.0 mg/kg/injection, schedule: Q01DX009 (ip), vehicle: saline); 92 % of control (endpoint: mean survival time, dose: 400.0 mg/kg/injection, schedule: Q01DX001 (ip), vehicle: saline); 101 % of control (endpoint: mean survival time, dose: 400.0 mg/kg/injection, schedule: Q01DX009 (ip), vehicle: saline).
